According to US20100099757A1, “DISULFIRAM DOSES AND TREATMENT REGIMEN SUITABLE FOR TREATMENT OF ANGIOGENESIS-DEPENDENT DISORDERS” (priority 2006, published 2010):

Experiments:
[1] = target: T1, aldehyde dehydrogenase (Rattus norvegicus, UniProt P11884); details: cited from earlier work
T1 sequence (P11884 20-519): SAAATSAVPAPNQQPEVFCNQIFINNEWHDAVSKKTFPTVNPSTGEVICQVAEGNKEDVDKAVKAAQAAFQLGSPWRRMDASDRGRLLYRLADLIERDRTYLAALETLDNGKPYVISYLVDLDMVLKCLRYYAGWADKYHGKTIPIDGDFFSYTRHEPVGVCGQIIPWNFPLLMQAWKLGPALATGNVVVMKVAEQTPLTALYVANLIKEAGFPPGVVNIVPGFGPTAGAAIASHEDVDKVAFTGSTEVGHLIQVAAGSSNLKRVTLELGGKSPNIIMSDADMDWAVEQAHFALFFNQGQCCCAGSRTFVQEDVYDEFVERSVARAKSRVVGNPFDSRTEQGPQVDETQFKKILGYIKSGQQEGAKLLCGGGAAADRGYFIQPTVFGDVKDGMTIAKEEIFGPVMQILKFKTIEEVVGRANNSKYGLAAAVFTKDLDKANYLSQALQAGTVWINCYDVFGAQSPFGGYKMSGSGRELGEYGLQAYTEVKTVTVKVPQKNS

[2] = tested on: human malignant cell lines; details: combination of disulfuram and metal ions, in vitro; cited from earlier work
[3] = tested on: acetaldehyde dehydrogenase; details: cited from earlier work
[4] = tested on: bovine capillary endothelial (BCE) cells; details: cited from earlier work
[5] = tested on: advanced stage IV metastatic melanoma; details: daily 250-500 mg disulfuram and 50 mg zinc gluconate; three months from onset of therapy; cited from earlier work
[6] = tested on: C6 glioma tumor; details: oral administration to mice; cited from earlier work
[7] = cited from earlier work
[8] = tested on: cancer; details: cited from earlier work
[9] = oral DSF, cited from earlier work
[10] = tested on: Lewis lung carcinoma; details: oral administration to mice; cited from earlier work
[11] = tested on: angiogenesis; details: oral administration, CD1 nude mice; cited from earlier work
[12] = target: Cu/Zn Suproxide dismutase (SOD-1) (Homo sapiens, UniProt P00441); details: both in vivo and in vitro; cited from earlier work
Cu/Zn Suproxide dismutase (SOD-1), sequence (P00441 whole entry, species assumed): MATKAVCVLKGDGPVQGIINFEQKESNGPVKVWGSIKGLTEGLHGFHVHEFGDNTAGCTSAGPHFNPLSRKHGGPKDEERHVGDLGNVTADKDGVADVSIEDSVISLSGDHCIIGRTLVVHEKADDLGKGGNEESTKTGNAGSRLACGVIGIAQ

[13] = tested on: non-small cell lung cancer; assay: Phase II trial of disulfuram with Cisplatin/Vinorelbine in non-small cell lung cancer; format: in vivo; details: 120 mg daily (40 mg three times a day) for eighteen weeks, human patients
From the text: A phase II, multicenter, randomized, double blind study was designed to assess the dose response of humans suffering from lung cancer to Disulfuram or a disulfuram-Cisplatin/Vinorelbine combination. Patients with histogically or cytologically documented advanced (i.e. stage Mb or stage IV), or recurrent non-small cell lung cancer, previously untreated with systemic anti-tumor therapy were selected for the study. The patients were randomly assigned to the standard first line hospital chemotherapy treatment (Cisplatin/Vinorelbine) with placebo or Cisplatin/Vinorelbine in combination with disulfuram. Treatment was provided in cycles of 21-day time periods until progression or for a maximum of 6 cycles.
The patients were further assessed for overall survival, time to progression and duration of response.
Standard administration regimens for cisplatin and Vinorelbine were followed.
Placebo capsules included the lactose carrier but were devoid of disulfuram. Each patient received the disulfuram or placebo from the treating physician.

[14] = cultured BCE cells, prevented by copper and antioxidants

SMILES: CCN(CC)C(=O)SC [Me-DTC, diethylthiomethylcarbamate]
- inhibition of aldehyde dehydrogenase [1]: most powerful irreversible inhibitor

SMILES: CCN(CC)C(=S)SSC(=S)N(CC)CC [disulfuram, bis(diethylthiocarbamoyl) disulfide]
- proliferation of human malignant cell lines [2]: inhibited the proliferation
- concentration of acetaldehyde in the blood versus same amount of alcohol alone ([3]; after alcohol intake under the influence of disulfuram): 5 to 10 times higher
- onset of effect ([3]; single dose unit): 1 to 2 h
- time of peak effect ([3]; single dose unit): about 12 hours
- time effect is sustained ([3]; single dose unit, depends on liver enzymes): 12 to 72 h
- duration of effects of a single dose in some individuals ([3]; single dose, some individuals): up to 2 weeks
- level of glutathione ([4]; BCE cells): reduced the level of glutathione
- DNA synthesis [4, 14]: inhibition of DNA synthesis
- apoptosis [4, 14]: induction of apoptosis
- reduction in tumor size [5]: > 50%
- C6 glioma tumor development [6]: significant inhibition
- soluble in alcohol ([7]; alcohol): about 3.8 g in 100 ml
- soluble in water ([7]; water): about 20 mg in 100 ml
- response rate, time to progression, or median survival ([8]; about 2000 mg/subject disulfuram with 100 mg/m2 cisplatin once every 3-4 weeks, versus cisplatin alone): no statistically-significant difference
- gastrointestinal and ototoxicities ([8]; about 2000 mg/subject disulfuram with 100 mg/m2 cisplatin): enhanced
- T1/2 ([9]; elimination kinetics): 7.3 h
- average time to reach maximum plasma concentration [9]: 8 to 10 h
- reduction in the metastatic load of Lewis lung carcinoma [10]: 10-19 fold
- angiogenesis [11]: inhibited angiogenesis
- activity of Cu/Zn Suproxide dismutase (SOD-1) [12]: inhibits activity
- time to progression and survival of non-small cell lung cancer [13]: extending time to progression and survival
